{"source": "patent US20100143428A1", "about": "“A STABLE GLUTARALDEHYDE COMPLEX” (priority 2006, published 2010)", "tested_on": "bacteria", "assay": "Residual efficacy on bacterially contaminated surfaces, duration of effect", "type": "cell-based", "conditions": "\"as is\"", "procedure": "Table 1 tabulates results of a residual efficacy test done on the product of the invention (sample number RT14) by the South African Bureau of Standards (SABS) using the European surface test method (1993), to determine the residual efficacy of the sample on bacterially contaminated surfaces.\nThe surfaces of stainless steel discs (2 cm^2) were seeded with a 0.1 ml bacterial suspension containing 10^7 bacterial cells/ml and thereafter dried at 37° C. for one hour. The 0.1 ml RT14 sample was dropped onto the dried disc, ensuring that the disc was totally covered. After 24 hours, 48 hours, 7 days, 14 days and 30 days respectively, the surfaces were again seeded with a bacterial suspension. After a minute contact time, the stainless steel discs were placed in conical flasks containing 10m1 of a neutralization medium to neutralize the RT14 and the flasks were shaken to dislodge the cells from the discs. Tenfold dilutions of the flask contents were placed onto sterile petri dishes. Nutrient agar was poured onto the petri dishes, mixed with contents, and incubated at 37° C. for 2 days. Colony-forming bacterial cells were counted. Untreated stainless steel discs were used as controls."}
{"compound": "O=CCCCC=O", "note": "[glutaraldehyde]", "values": [{"measurement": "duration of effectiveness on bacteria", "value": "up to 10 hours"}]}
